Where “and” joins values, the source holds several entries; their conditions need not be identical. Identical values can stand only once. Like-named read-outs stand apart in the source and are kept apart here.
Key:
[1] = test system: ARAT; assay: Assay for ARAT activity, bovine RPE microsomes (to identify B1); format: biochemical; settings: for % Inhibition ARAT (100 jm): compound 100 jm; for % Inhibition ARAT (10 jm): compound 10 jm
Method: (§1) 2.1 Isolation of RPE Microsomes (Modified from (1))
(§2) 50 frozen hemisected bovine eyecups, with the retina and aqueous humor removed were obtained from W. L. Lawson Co., Lincoln, Nebr., USA. The eyes were thawed overnight and the colored iridescent membrane was removed by peeling with forceps. Each eyecup was washed with 2× 0.5 mL cold buffer (0.1M PO4/1 mM DTT/0.25N sucrose, pH 7) by rubbing the darkly pigmented cells with an artist's brush or a rubber policeman. The cell suspension was added to the iridescent membranes and the suspension was stirred for several minutes in a beaker with a Teflon stir bar.
(§3) The cell homogenate was centrifuged for 30 min. at 20,000 g (Sorvaal model RC-5B centrifuge with an SS34 rotor in 2.5×10 cm tubes at 14,000 RPM). The resulting supernatant was subjected to further centrifugation for 60 min. at 150,000 g (Beckman model L80 Ultracentrifuge with an SW50.1 rotor in 13×51 mm tubes at 40,000 RPM). The resulting pellets were dispersed into ˜5 mL 0.1M PO4/5 mM DTT, pH 7 buffer using a Heat Systems Ultrasonics, Inc. model W185D Sonifier Cell Disrupter, and the resulting microsomal dispersion was aliquoted into small tubes and stored at −70° C. The protein concentrations of the microsomes were determined using the BioRad Dye binding assay, using BSA as a standard.
(§4) 2.3 Assay for ARAT and LRAT Activity (to Identify B1)
(§5) The procedure below was a modification of a method described in the literature (2). The following buffer was prepared and stored at 4° C.: 0.1M PO4 5 mM dithiothreitol, pH 7.0 (PO4/DTT). On the day of the assay, 2 mg BSA per mL of buffer was added to give a PO4/DTT/BSA working buffer. 1 mM retinol substrate was prepared in acetonitrile and stored in amber bottles under nitrogen gas at −20° C. Solutions of 4 mM Palmitoyl-CoA in working buffer (stored in aliquots) and 4 mM dilauroyl phosphatidyl choline in ethanol were prepared and stored at −20° C. Inhibitors were prepared as 10 mM stock solutions in H2O, ethanol, acetonitrile or DMSO. The quench solution was prepared using pure ethanol containing 50 μg/mL butylated hydroxytoluene (BHT), and a hexane solution containing 50 μg/mL BHT was used for the extractions.
(§6) The mixture was incubated for 5 min. at 37° C. to equilibrate the reaction temperature and then 5 μL 1 mM retinol was added. The vials were capped, vortexed for 5 seconds and incubated for 30-90 minutes at 37° C. The reaction was quenched by adding 0.5 mL ethanol/BHT. The retinoids were extracted by adding 3 mL hexane/BHT, vortexing the tubes for several seconds several times and centrifuging the tubes at low speed for 5 min. to quickly separate the layers. The upper hexane layer was removed into a clean vial, and the aqueous layer re-extracted with another 3 mL hexane/BHT, as described above. The hexane layers were combined, and the hexane evaporated by drying at 37° C. under a stream of nitrogen gas on a heated aluminum block. The dried residue was stored at −20° C. until HPLC analysis. The amount of retinyl palmitate and retinyl laurate was quantitated for ARAT and LRAT activity, respectively, by integration of the HPLC signal as described below.
(§7) Note that the incubation solution contains 40 μM acyl donor, 100 μM or less inhibitor, 10 uM retinol, approximately 30 μg/mL microsomal protein, and nearly 0.17 PO4/pH 7/5 mM DTT/2 mg/mL BSA. All steps subsequent to the addition of retinol were done in the dark or under amber lights.
(§8) Samples for retinoid quantitation by HPLC were prepared by dissolving the residue in each vial with 100 μL of methanol. […] Aliquots of 60 μL were injected immediately and analysed for retinoid content.
(§9) Two HPLC protocols were used for retinoid analysis.
(§10) These protocols were selected based on their ability to clearly resolve pertinent retinoid acids, alcohols, aldehydes, and/or esters for each assay and relative quickness of separation.

[2] = target: T1, LRAT (Bos taurus, UniProt Q9BGL2); assay: Assay for LRAT activity, bovine RPE microsomes (to identify B1); format: biochemical
T1 construct: followed by approximately 15 μg of RPE microsomal protein; tissue W. L. Lawson Co., Lincoln, Nebr., USA (eyecups); host or cells: bovine retinal pigment epithelium microsomes
T1 sequence (Q9BGL2 1-230): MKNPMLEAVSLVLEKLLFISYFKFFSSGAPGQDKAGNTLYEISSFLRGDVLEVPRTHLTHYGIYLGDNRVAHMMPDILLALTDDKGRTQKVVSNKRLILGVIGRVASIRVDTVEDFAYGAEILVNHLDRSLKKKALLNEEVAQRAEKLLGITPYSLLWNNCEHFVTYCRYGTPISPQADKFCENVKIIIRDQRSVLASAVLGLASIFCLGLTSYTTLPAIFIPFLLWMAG
Method: as §1, §2, §3, §4, §5, §6, §7, §8, §9, §10

[3] = test system: transglutaminase (TGase I); assay: Transglutaminase (Tgase) ELISA assay in cultured keratinocytes with retinol and boosters; format: cell-based, human; settings: for TG as % C Compd 2 / TG as % C Compd 1 / TG as % C, Compd 3: concentration one log below IC20; for TG as % C, Compd 3: Compound 3 alone; for IC20: IC20 (80% of control)
Method: For this reason, a transalutaminase (Tgase) assay was utilised.
Thus TGase I is a useful marker of epidermal keratinocyte differentiation with high TGase I levels indicating a more differentiated state. An ELISA based TGase I assay, using a TGase I antibody, was used to assess the state of differentiation of the cultured keratinocytes in the examples that follow.
Keratinocytes (cultured as described above) were plated in 96 well plates at a density of 4,000-5,000 cells per well in 200 μl media. After incubation for two to three days, or until cells are ˜50% confluent, the media was changed to media containing test compounds (five replicates per test). The cells were cultured for a further 96 hours after which time the media was aspirated and the plates stored at −70° C. Plates were removed from the freezer, and the cells were washed twice with 200 μl of 1×PBS. The cells were incubated for one hour at room temperature (R/T) with TBS/5% BSA (wash buffer, bovine serum albumin). Next the TGase primary antibody was added: 50 μl of monoclonal anti-Tgase I Ab B.C. diluted 1:2000 in wash buffer. The primary antibody was incubated for 2 hours at 37° C. and then rinsed 6× with wash buffer. Cells were then incubated with 50 μl of secondary antibody (Fab fragment, peroxidase conjugated anti-mouse IgG obtaining from Amersham) diluted 1:4,000 in wash buffer for two hours at 37° C., then rinsed three times with wash buffer. Following the rinse with washing buffer, the cells were rinsed 3× with PBS. For colourimetric development, the cells were incubated with 100 μl substrate solution (4 mg o-phenylenediamine and 3.3 μl 30% H2O2 in 10 ml 0.1M citrate buffer pH 5.0) for exactly five minutes, R/T, in darkness (under aluminum foil). The reaction was stopped by the addition of 50 μl 4 N H2SO4. […] Out of the five replicates, four were treated with both antibodies, the fifth one was use as a Tgase background control. Tgase levels were determined and expressed as percentage control.
A suspension of keratinocytes was prepared at a concentration of 3000 cells/200 μl/well in KGM medium (Used 3×10^5 cells/12 ml media in each microtitre plate)
200 μl of the keratinocyte suspension was transferred into each of the inner 60 wells only.
Each plate was incubated at 37° C. and 5% CO2 for 3 days or until cells are ˜50% confluent.
Stock solutions of the samples were prepared in DMSO.
The samples were diluted to desired concentration with the final assay concentration of DMSO being 0.1%.

[4] = Compound 2 alone, in the presence of 10^-7M retinol
[5] = in the presence of 10^-7M retinol
[6] = compound tested individually in the presence of 10^-7 M retinol
[7] = B5 table, with 10^−7 M retinol, read-out: Overall TG (IC 50)
[8] = Tgase inhibition, compound tested individually in the presence of 10^-7 M retinol, read-out: IC50

| Compound | % Inhibition ARAT (100 jm) [1] | TG as % C, Compd 3 [3, 5] [% C] | IC20 [3, 6] [µM] | other results |
| --- | --- | --- | --- | --- |
| CCCCCCCCCCCC(=O)N(C)CC(=O)O [Lauroyl Sarcosine] | 20% |  |  |  |
| Delta-Damascone |  |  |  | % Inhibition LRAT (10 jm) ([2]; compound 10 jm): 64%; % Inhibition LRAT (100 jm) ([2]; compound 100 jm): 95% |
| CCCCCCCCCCCCCCCCC(O)C(=O)O (stereo not drawn) [2-hydroxysteric acid, 2-Hydroxystearic acid] |  |  |  | TG as % C Compd 2 [3, 4]: 83 % C; TG as % C Compd 1 ([3]; compound 1 alone, with retinol): 92 % C |
| C/C=C\C(=O)C1C(C)=CCCC1(C)C (stereo not drawn) [a-Damascone] |  | 89 |  |  |
| CC/C=C\C/C=C\C/C=C\CCCCCCCC(=O)O [Linolenic Acid] |  | 208 | 121 |  |
| O=C1CCc2ccccc2N1 |  | 90 |  | TG as % C Compd 2 [3, 4]: 90 % C |
| CC(C)=CCC/C(C)=C/CC/C(C)=C/CC/C(C)=C/CO [Geranyl Geraniol] | 81% +/− 6 |  |  | % Inhibition ARAT (10 jm) [1]: 38% +/− 12 |
| CCCCCCCCCCCC1=NCCN1CCO [Lauryl Hydroxyethylimidazoline] |  | 52 | 0.269 | IC50 [3, 7]: 0.467 µM; IC50 [3, 8]: 0.467 µM; TG as % C Compd 2 ([3]; compound 2 alone, with retinol): 73 % C; TG as % C Compd 2 ([3]; compound 2 alone, with retinol, listed as Lauryl hydorxyimidazoline): 106 % C; TG as % C Compd 2 ([3]; compound 2 alone, with retinol, listed as Lauryl hydroxyethylimiazoline): 98 % C |
| Dimethyl imidazoline |  |  |  | TG as % C Compd 2 ([3]; compound 2 alone, with retinol): 112 % C |
| Dimethyl imidazolinone |  | 87 |  | TG as % C Compd 2 [3, 4]: 87 % C |
| CCCCCCCCCCCCCC(=O)N(C)CC(=O)O [Myristoyl Sarcosine] | 41% +/− 14 |  |  |  |
| CCN(CC)CC(=O)Nc1c(C)cccc1C [Lidocaine, reference compound] | 12% |  |  |  |
| O=c1c2cccc3cccc(c32)c2nc3ccccc3n12 [7H-Benzimidazo[2,1-a]Benz[de]-isoquinolin-7-one] |  | 94 | 0.469 |  |
| CCCCCC(N)=O [Hexanoamide] | 20% |  |  |  |
| […]-Ionone |  |  |  | TG as % C Compd 1 ([3]; Compound 1 alone, in the presence of 10^-7M retinol): 68 % C |
| CCCCCCCCCCCCCCCC(=O)O [Hexadecanoic acid] |  |  |  | TG as % C Compd 2 ([3]; compound 2 alone, with retinol): 95 % C |
| Alpha-Ionone |  |  | 142 | IC50 ([3]; B1 table, booster concentration which with 10^−7 M retinol inhibits TGase by 50%, same values in the 19th table (Molar), read-out: Overall TG (IC 50)): 927 µM; IC50 [3, 8]: 927 µM; TG as % C Compd 1 ([3]; compound 1 alone, with retinol): 101 % C |
| O=C(O)CCCCCCCCCCCCCCC(=O)O [Hexadecanedioic Acid] |  |  | 84 | TG as % C Compd 2 [3, 4]: 90 % C; IC50 [3, 8]: 130 µM; TG as % C Compd 2 ([3]; compound 2 alone, with retinol): 125 % C |
| CC(C)=CCCC(C)=CCCC(C)=CCO [Farnesol] | 53% +/− 18 | 118 | 78.2 | % Inhibition ARAT (10 jm) [1]: 23% +/− 18; TG as % C Compd 1 ([3]; compound 1 alone, with retinol): 98 % C |
| Oc1ccc2ccccc2n1 [Hydroxyquinoline (Carbostyril), 2-Hydroxyquinoline(Carbostyril)] |  | 95 | 170 | IC50 [3, 7]: 364 µM; IC50 [3, 8]: 364 µM |
| CC(C)=CCC/C(C)=C/CO [Geraniol] | 32% | 105 | 4720 | % Inhibition ARAT (10 jm) [1]: 13% |
| O=c1ccc2ccccc2o1 [Coumarin] |  | 80 |  | TG as % C Compd 2 ([3]; compound 2 alone, with retinol): 96 % C |
| CCCCCCC(O)CCCCCCCCCCC(=O)O (stereo not drawn) [12-Hydroxystearic Acid] |  | 95 | 14.5 | IC50 ([3]; Homo sapiens, Keratinocyte, B4 table, with 10^−7 M retinol, read-out: Overall TG (IC 50)): 29.1 µM |
| […]-Damascone |  | 89 |  |  |
| Coco Trimethyl-ammonium Cl— | 27% |  |  |  |
| CC(C)=CCCC(C)CCO (stereo not drawn) [Citronellol] | 30% |  |  |  |
| CC(C)=CCCC(C)=CC=O [Citral] | 20% |  |  |  |
| Nn1nnc2ccccc21 |  | 105 |  | TG as % C Compd 2 [3, 4]: 105 % C; TG as % C Compd 2 ([3]; compound 2 alone, with retinol): 105 % C and 126 % C; TG as % C Compd 2 ([3]; compound 2 alone, with retinol, listed as Aminobenzotriazole): 98 % C |
